Assay results taken from US20070122501A1, “Formulations containing astragalus extracts and uses thereof” (Hong Kong University of Science and Technology, priority 2003, published 2007).

Key:
[1] = tested on: aging (PD34) adult keratinocytes; experiment: Scratch (wound healing) assay in aging adult keratinocytes (FIGS. 6, 8, 9); format: cell-based, human; details: FIG. 8, comparison of extract and PDGF
Source text: (§1) Cell lines used in these experiments were obtained from Cascade Biologics, Inc. Neonatal keratinocytes (HEKneo-P) were obtained from a pool generated from three donors, designated HEKn(12), PD 8.46; HEKn(15), PD 9.3; and HEKn(16), PD 5.16. Adult keratinocytes were obtained from a single donor, designated HEKa(18). The terms “neonatal” and “adult” refer to the age of the donor, while the terms “young” and “aging” or “late passage” refer to the age of the cell culture, and correspond to the number of population doublings (indicated as PD no.).
(§2) Cells are plated in flasks (5×10^5 cells per flask) and cultured for two days in a humidified chamber at 5% CO2, 37° C. To create the “wound”, a 2 ml plastic pipette is gently dragged to “scratch” the cell surface. The ideal wound is approximately 2-3 mm wide and 50 mm long (along the long axis of the tissue culture flask). The cells are retreated with medium containing either vehicle (DMSO; control sample) or test compositions at multiple concentrations. […]
(§3) Amount of wound closure is determined by measuring the width of the wound over time for extract-treated samples relative to vehicle-treated or other control cells. […] Percentage of wound healing is calculated by the following formula: WH=100−[100×Wn/W0], where Wn is the width of the wound on day n and W0 is the width of the wound on day one (immediately after scratching).

[2] = tested on: late passage (PD40) neonatal keratinocytes; experiment: Scratch (wound healing) assay in late passage / aging neonatal keratinocytes (FIGS. 7, 10); format: cell-based, human; details: FIG. 10
Source text: as §1, §2, §3

## PDGF
[1]
  state of scratched cell layer by day 4: confluent or near-confluent
[2]
  wound closure after four days: complete or near-complete wound closure
